This note sets out measurements from patent publication US20260216207A1, “7-CARBONYLSTAUROSPORINE DERIVATIVE, PREPARATION METHOD THEREFOR, AND USE THEREOF” (HANGZHOU KEXING BIOCHEM. CO., LTD., priority 2023, published 2026).

The structures appear in SMILES notation.

Holding throughout (format): biochemical
For one assay, the target named is TRKA (Homo sapiens, UniProt P04629). The assay can be described thus: HTRF KinEASE kinase assay, TRKA (kinase selectivity). The following applies: HTRF KinEASE kit, 3 duplicate wells; read-out: TRKA IC50. Here is the method: (§1) Inhibitory activities against PIM-1, TRKA, TRKB, FLT3, PKCδ, PKCε, PKCη, PAK4, PLK1, ROCK2, and IKKβ kinases were all determined using an HTRF®KinEASE™ kinase assay kit based on a time-resolved fluorescence technology. 7-carbonylstaurosporine (7OSTA) and TP-3654 were used as positive controls, and 3 duplicate wells were set in parallel. […] A signal ratio was calculated as F2/F1×10000, and then an IC50 value was calculated using Graphpad Prism 8 software.
Sequence of TRKA (P04629 33-796, species assumed): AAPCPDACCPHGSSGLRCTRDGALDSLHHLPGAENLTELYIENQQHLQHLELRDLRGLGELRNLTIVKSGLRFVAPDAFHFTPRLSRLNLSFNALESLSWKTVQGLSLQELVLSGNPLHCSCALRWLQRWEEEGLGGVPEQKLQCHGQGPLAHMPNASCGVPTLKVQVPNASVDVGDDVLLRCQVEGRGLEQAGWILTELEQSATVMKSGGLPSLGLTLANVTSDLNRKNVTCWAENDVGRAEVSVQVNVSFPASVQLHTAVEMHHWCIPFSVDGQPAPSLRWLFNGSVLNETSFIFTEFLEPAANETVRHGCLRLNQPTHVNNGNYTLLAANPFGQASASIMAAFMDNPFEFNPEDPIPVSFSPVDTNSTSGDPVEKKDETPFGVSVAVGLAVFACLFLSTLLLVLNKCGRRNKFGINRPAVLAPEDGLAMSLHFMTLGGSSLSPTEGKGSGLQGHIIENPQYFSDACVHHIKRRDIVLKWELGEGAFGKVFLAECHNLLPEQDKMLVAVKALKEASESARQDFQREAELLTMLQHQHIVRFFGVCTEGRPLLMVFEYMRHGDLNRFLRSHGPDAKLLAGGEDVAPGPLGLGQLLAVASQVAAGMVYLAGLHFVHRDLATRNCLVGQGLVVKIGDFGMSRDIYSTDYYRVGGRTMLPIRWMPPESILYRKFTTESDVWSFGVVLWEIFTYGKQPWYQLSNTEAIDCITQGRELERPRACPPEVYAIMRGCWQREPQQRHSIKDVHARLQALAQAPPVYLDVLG

The next assay has as its target TRKB (Homo sapiens, UniProt Q16620). Put plainly: HTRF KinEASE kinase assay, TRKB (kinase selectivity). The following applies: HTRF KinEASE kit, 3 duplicate wells; read-out: TRKB IC50. Here is the method: as §1
For orientation: Time-resolved FRET reads energy transfer from a long-lived donor to a nearby acceptor.

In another assay the target is T1, PKCε (Homo sapiens, UniProt Q02156).
T1 sequence (Q02156 1-737): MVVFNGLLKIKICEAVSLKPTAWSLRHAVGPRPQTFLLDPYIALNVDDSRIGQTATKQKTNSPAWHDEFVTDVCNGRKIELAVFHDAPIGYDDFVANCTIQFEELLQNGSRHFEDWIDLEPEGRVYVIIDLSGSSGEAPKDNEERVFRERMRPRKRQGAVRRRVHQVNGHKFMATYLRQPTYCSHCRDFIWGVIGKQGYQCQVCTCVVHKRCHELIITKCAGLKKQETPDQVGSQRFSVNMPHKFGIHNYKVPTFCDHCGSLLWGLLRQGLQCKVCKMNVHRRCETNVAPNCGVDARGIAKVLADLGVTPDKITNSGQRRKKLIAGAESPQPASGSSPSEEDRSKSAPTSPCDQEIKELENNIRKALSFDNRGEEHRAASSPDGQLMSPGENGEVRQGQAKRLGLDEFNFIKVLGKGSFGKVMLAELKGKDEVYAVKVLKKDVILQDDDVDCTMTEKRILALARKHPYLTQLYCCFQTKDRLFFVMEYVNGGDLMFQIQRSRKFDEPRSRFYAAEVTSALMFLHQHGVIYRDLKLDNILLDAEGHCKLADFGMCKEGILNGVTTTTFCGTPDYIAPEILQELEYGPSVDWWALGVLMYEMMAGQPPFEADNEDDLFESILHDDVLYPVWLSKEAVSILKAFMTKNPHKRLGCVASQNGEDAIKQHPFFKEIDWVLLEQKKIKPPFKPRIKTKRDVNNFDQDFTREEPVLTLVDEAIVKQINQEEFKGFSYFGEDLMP
The assay can be described thus: HTRF KinEASE kinase assay, PKCε (kinase selectivity). The following applies: HTRF KinEASE kit, 3 duplicate wells; read-out: PKCε IC50. Here is the method: as §1

The target of a further assay is PAK4 (Homo sapiens, UniProt O96013). Put plainly: HTRF KinEASE kinase assay, PAK4 (kinase selectivity). Conditions: HTRF KinEASE kit, 3 duplicate wells; read-out: PAK4 IC50. Here is the method:
as §1

The next assay has as its target PLK1 (Homo sapiens, UniProt P53350). The assay can be described thus: HTRF KinEASE kinase assay, PLK1 (kinase selectivity). The following applies: HTRF KinEASE kit, 3 duplicate wells; read-out: PLK1 IC50. Here is the method: as §1

Sequence of TRKB (Q16620 32-822, species assumed): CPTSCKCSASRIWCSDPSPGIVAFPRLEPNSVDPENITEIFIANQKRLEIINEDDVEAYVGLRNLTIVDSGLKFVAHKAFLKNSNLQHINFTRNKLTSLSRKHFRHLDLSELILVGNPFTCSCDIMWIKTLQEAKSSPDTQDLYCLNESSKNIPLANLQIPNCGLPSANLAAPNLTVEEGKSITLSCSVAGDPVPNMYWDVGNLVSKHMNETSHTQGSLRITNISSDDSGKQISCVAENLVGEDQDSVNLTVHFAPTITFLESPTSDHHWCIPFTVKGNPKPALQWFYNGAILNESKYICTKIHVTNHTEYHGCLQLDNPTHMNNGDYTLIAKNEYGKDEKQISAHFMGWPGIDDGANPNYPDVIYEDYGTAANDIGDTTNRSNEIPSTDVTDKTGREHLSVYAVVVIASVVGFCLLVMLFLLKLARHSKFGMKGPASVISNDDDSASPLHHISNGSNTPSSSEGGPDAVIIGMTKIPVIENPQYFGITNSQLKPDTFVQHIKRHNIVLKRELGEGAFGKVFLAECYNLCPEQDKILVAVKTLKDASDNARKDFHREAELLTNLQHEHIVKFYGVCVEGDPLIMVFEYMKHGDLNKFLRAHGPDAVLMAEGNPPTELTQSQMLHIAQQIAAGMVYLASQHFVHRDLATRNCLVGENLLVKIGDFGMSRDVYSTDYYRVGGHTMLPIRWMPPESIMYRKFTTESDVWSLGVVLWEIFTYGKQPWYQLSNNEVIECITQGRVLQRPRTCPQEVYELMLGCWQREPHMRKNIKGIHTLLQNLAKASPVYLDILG
Sequence of PAK4 (O96013 whole entry, species assumed): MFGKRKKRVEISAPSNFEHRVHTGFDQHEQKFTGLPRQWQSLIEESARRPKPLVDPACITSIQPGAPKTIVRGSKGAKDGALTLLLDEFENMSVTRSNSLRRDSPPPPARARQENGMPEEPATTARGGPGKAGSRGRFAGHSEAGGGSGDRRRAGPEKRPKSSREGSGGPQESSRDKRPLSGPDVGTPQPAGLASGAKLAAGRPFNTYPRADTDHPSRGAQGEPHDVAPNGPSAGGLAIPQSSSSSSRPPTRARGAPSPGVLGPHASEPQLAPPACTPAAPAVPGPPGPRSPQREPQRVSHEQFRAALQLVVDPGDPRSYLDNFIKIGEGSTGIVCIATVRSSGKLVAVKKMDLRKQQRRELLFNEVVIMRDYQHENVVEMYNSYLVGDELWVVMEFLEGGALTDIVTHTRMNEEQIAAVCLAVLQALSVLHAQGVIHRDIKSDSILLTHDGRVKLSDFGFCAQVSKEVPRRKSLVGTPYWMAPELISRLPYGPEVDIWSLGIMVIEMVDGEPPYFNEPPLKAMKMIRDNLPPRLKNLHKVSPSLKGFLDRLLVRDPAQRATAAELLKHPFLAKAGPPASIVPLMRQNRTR
Sequence of PLK1 (P53350 whole entry, species assumed): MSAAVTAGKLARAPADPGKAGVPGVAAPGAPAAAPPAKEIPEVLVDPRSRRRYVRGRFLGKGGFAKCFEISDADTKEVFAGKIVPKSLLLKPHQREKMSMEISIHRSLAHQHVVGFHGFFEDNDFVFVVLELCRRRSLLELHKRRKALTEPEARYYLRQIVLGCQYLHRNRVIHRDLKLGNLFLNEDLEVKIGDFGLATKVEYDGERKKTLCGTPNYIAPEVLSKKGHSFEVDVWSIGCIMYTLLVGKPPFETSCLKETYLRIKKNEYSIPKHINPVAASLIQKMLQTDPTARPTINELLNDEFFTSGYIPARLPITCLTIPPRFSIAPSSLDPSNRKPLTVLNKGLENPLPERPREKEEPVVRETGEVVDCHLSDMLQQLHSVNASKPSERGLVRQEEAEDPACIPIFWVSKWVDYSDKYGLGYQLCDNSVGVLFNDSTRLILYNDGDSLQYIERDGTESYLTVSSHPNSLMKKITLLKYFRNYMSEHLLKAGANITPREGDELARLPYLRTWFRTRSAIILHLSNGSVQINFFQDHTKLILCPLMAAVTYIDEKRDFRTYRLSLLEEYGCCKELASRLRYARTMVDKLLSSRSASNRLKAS

Usually IC50 stands for the midpoint of a concentration-inhibition curve. For the compound `CO[C@@H]1[C@H](N(C)C(=O)CCC(=O)NO)C[C@H]2O[C@]1(C)n1c3ccccc3c3c4c(c5c6ccccc6n2c5c31)C(=O)NC4=O` [Compound 17], the IC50 on TRKA was 4 nM; at TRKB it was 13.6 nM; on PKCε, 69 nM; at PAK4, 240 nM; on PLK1 it was 421 nM.
